# Test results as given in patent US8778927B2, “Smoothened antagonism for the treatment of hedgehog pathway-related disorders” (Novartis AG, priority 2008, dated 2014).
# How the values were obtained:
# [1] = test system: Ptch+/−Hic+/− medulloblastoma allograft; assay: Ptch+/−Hic+/− medulloblastoma allograft model, continuous dosing; type: in vivo, mouse; settings: day 47
# Description: (§1) Mouse medulloblastoma cells (1.0−5.0×10^6), dissociated directly from tumor fragments originally derived from spontaneously arising medulloblastomas in Ptch+/−p53−/−, Ptch+/−Hic+/− or Ptch+/− mice, were inoculated subcutaneously into the right flank of Harlan nu/nu mice. Treatment was initiated approximately 7-10 days post implantation. Animals were randomized into treatment groups with similar mean tumor volumes that ranged from approximately 250-300 mm3. Tumor volumes (mm3) and body weights (g) were recorded two or three times per week from all groups for analysis. Dose was body weight adjusted at time of dosing. Comparisons between treatment groups was performed using a non-parametric Kruskal-Wallis/Wilcoxon Rank Sum Test.
# (§2) Tumors were calipered in two dimensions, and the volumes were calculated using the formula: (length×width2)/2, where length is the longer of the two measurements and width is the shorter one. Percent treatment/control (% T/C) values were calculated using the following formula: % T/C=100×ΔTf−i/ΔCf−i if ΔTf−i>0, % T/T0=100×ΔTf−i/T0 if ΔTf−i<0 (regression). A partial responder (PR) was defined as an animal whose tumor was less than 50% of the initial tumor volume by the end of the study. An animal with no palpable tumor by the end of study is defined as a complete responder (CR).
# Treatments started on day 7 post implantation (5 million cells/animal). Compound 1 was administered po at 5 mg/kg bid, 10 mg/kg bid, 20 mg/kg qd, 20 mg/kg bid, 40 mg/kg bid and 80 mg/kg bid for the length of study. Compound 2 was administered at 100 mg/kg bid for the length of study. Vehicle control of Compound 1 was 0.5% methylcellulose 0.5% Tween 80 in water. The initial group size consisted of 8 animals. The vehicle group was taken down 10 days after treatment (tumors greater than 10% of mouse body weight).
# Sustained regressions listed in the Table 1 represent number of complete responses still present at the end of study on day 47.
# Two additional Smo inhibitors, Compound 3 and Compound 4 were evaluated in follow-up studies in the Ptch+/−Hic+/− model upon continous dosing.
# PI3K pathway genes = assay: Affymetrix mRNA profiling of tumors, PI3K pathway genes; type: in vivo, mouse
# Description: (§3) In order to characterize changes in gene expression in sensitive tumors compared to resistant tumors (both of which terms are defined herein), RNA was isolated from sensitive tumors treated with vehicle or Compound 1 for 4 (single dose), 16 (single dose) and 48 hours (three doses) as well as from resistant tumors (that initially had regressed in the presence of Compound 1 (day 13) but then regrew in the presence of drug as described above). Three tumors were analyzed per treatment group: The sensitive tumor group comprises tumors treated with 20 mg/kg of Compound 1 for 4 hours; 16 hours; and 48 hours. The resistant tumor group comprises tumors treated with 10 mg/kg bid and 80 mg/kg bid of Compound 1 for 26 days. mRNA expression in tumor samples was analyzed by Affymetrix profiling. The expression data were analyzed using the GeneGo pathway program, which groups data according to signal transduction pathways.
# [2] = test system: resistant medulloblastoma tumor cells; assay: ex-vivo medulloblastoma proliferation assay (3H thymidine, 48 h), resistant tumor cells; type: cell-based, mouse; settings: Mus musculus
# Description: (§4) The effect of statins (e.g., simvastatin, flustatin) on the proliferation of medulloblastoma cells derived from sensitive and resistant Ptch+/− cells was evaluated by using an “ex-vivo medulloblastoma proliferation assay.” Using Ptch+/−p53−/−, Ptch+/−Hic+/− or Ptch+/− medulloblastoma tumors freshly harvested from allografted nude mice, we have developed a short-term 48 h proliferation assay that enables us to assess the in vitro potency of Smo inhibitors. The read-out for proliferation uses incorporation of 3H thymidine. The assay reflects the in vivo sensitivity of tumor cells to Compound 1.
# (§5) The effect of PI3K inhibitors (e.g., compounds such as Compound A) on the proliferation of medulloblastoma cells derived from sensitive and resistant medulloblastoma cells was evaluated by using an “ex-vivo medulloblastoma proliferation assay,” as described above.
# [3] = test system: Cholesterol biosynthesis pathway genes; assay: Affymetrix mRNA profiling of tumors, cholesterol biosynthesis genes; type: in vivo, mouse; settings: sensitive and resistant tumors
# Description: as §3
# [4] = test system: sensitive medulloblastoma tumor cells; assay: ex-vivo medulloblastoma proliferation assay (3H thymidine, 48 h), sensitive tumor cells; type: cell-based; settings: Mus musculus
# Description: as §4, §5
# [5] = test system: Hedgehog signaling pathway genes; assay: Affymetrix mRNA profiling of tumors, Hedgehog pathway genes; type: in vivo, mouse
# Description: as §3
# [6] = test system: Ptch+/− medulloblastoma allograft; assay: Ptch+/− medulloblastoma allograft model, continuous dosing; type: in vivo, mouse; settings: day 48
# Description: as §1, §2
# Treatments started on day 7 post implantation (5 million cells/animal). Compound 1 was administered po at 10 mg/kg qd, 20 mg/kg qd, 40 mg/kg qd, 80 mg/kg qd and 160 mg/kg qd for the length of study. Compound 2 was administered at 100 mg/kg bid for the length of study. Vehicle control of Compound 1 was 0.5% methylcellulose 0.5% Tween 80 in water. The initial group size consisted of 8 animals. The vehicle group was taken down 7 days after treatment (tumors greater than 10% of mouse body weight). Similar resistance was seen to that observed with the Ptc+/−Hic+/− model, with a subset of the complete responders growing back and others showing complete regression (Table 2). Sustained regression listed in Table 2 represent number of complete regressions still present at the end of study on day 48.
# [7] = test system: Ptch+/−Hic+/− medulloblastoma allograft; assay: combination of Smo inhibitor and PI3K inhibitor in Ptch+/−Hic+/− medulloblastoma allograft model; type: in vivo, mouse
# Description: Mouse medulloblastoma cells (1.0-5.0×10^6), dissociated directly from tumor fragments originally derived from spontaneously arising medulloblastomas in Ptch+/-p53-/-, Ptch+/-Hic+/- or Ptch+/- mice, were inoculated subcutaneously into the right flank of Harlan nu/nu mice. Treatment was initiated approximately 7-10 days post implantation. Animals were randomized into treatment groups with similar mean tumor volumes that ranged from approximately 250-300 mm3. Tumor volumes (mm3) and body weights (g) were recorded two or three times per week from all groups for analysis. Dose was body weight adjusted at time of dosing. Comparisons between treatment groups was performed using a non-parametric Kruskal-Wallis/Wilcoxon Rank Sum Test. Tumors were calipered in two dimensions, and the volumes were calculated using the formula: (length×width2)/2, where length is the longer of the two measurements and width is the shorter one. […] A partial responder (PR) was defined as an animal whose tumor was less than 50% of the initial tumor volume by the end of the study. An animal with no palpable tumor by the end of study is defined as a complete responder (CR). Next, a combination of Compound 1 and Compound A was explored in the Ptch+/-Hic+/- medulloblastoma allograft model. […] Animals treated with vehicle control and with compound A had to be sacrificed around day 20 and 25, respectively, because their tumor volume reached 1500 mm3. […] Similar results were obtained for animals treated with Compound 1 alone for the first 10 days, followed by single agent treatment with Compound A (data not shown). […] Next, a combination of Compound 1 and Compound B was explored in the Ptch+/-Hic+/- medulloblastoma allograft model. […] Animals treated with vehicle control and with compound B reached the endpoint around day 12 to 15, respectively, because their tumor volume reached 700 mm3.
smiles,measurement,setting,value
"Cc1c(C(=O)Nc2ccc(N3C[C@@H](C)O[C@@H](C)C3)nc2)cccc1-c1ccc(OC(F)(F)F)cc1 [Compound 1, 2-Methyl-4′-trifluoromethoxy-biphenyl-3-carboxylic acid [6-(cis-2,6-dimethyl-morpholin-4-yl)-pyridin-3-yl]-amide]",sustained regressions (complete responses still present at end of study),[1]; 5 mg/kg bid po,0/8
same,sustained regressions (complete responses still present at end of study),[1]; 10 mg/kg bid po,1/8
same,sustained regressions (complete responses still present at end of study),[1]; 20 mg/kg bid po,7/8
same,sustained regressions (complete responses still present at end of study),[1]; 20 mg/kg qd po,0/8
same,sustained regressions (complete responses still present at end of study),[1]; 40 mg/kg bid po,3/8
same,sustained regressions (complete responses still present at end of study),[1]; 80 mg/kg bid po,6/8
same,PI3K pathway activity (gene expression),PI3K pathway genes; resistant tumors compared to sensitive tumors,upregulation of PI3K pathway activity was observed in resistant tumors
same,expression of genes indicative of PI3K pathway activity,"PI3K pathway genes; sensitive tumors, 4, 16 and 48 h",No changes in gene expression were detected
same,IC50,"[2]; Resistant tumor, Table 3",> 20000 nM
same,IC50,"[2]; ptch+/− Hic+/−, Resistant, Table 4",> 20000 nM
same,IC50,"[2]; resistant tumors, summary of Table 4",> 20000 nM
same,IC50,"[2]; resistant tumors, text b482",> 20000 nM
same,expression of genes of the Cholesterol biosynthesis pathway,[3],A similar expression pattern was observed
same,IC50,"[4]; Sensitive tumor, Table 3",3 nM
same,IC50,"[4]; ptch+/− Hic+/−, sensitive, Table 4",2 nM
same,IC50,"[4]; sensitive cells, summary of Table 4",2 to 4 nM
same,IC50,"[4]; sensitive tumor cells, text b482",4 nM
same,expression of Hedgehog pathway genes,"[5]; resistant tumors, 10 and 80 mg/kg bid, 26 days",no longer sufficiently inhibited the expression of Hedgehog pathway genes
same,expression of genes indicative of Hedgehog signaling pathway activity,"[5]; sensitive tumors, 20 mg/kg, 4 h, 16 h, 48 h",suppressed in sensitive tumors in a time-dependent manner
same,sustained regressions (complete regressions still present at end of study),[6]; 10 mg/kg qd po,0/8
same,sustained regressions (complete regressions still present at end of study),[6]; 20 mg/kg qd po,1/8
same,sustained regressions (complete regressions still present at end of study),[6]; 40 mg/kg qd po,1/8
same,sustained regressions (complete regressions still present at end of study),[6]; 80 mg/kg qd po,4/8
same,sustained regressions (complete regressions still present at end of study),[6]; 160 mg/kg qd po,5/8
same,effect on tumor growth,"[7]; 40 mg/kg qd, FIG. 6A",initially induced regression but tumors started to regrow
same,time to endpoint (tumor volume >1500 mm3),"[7]; 40 mg/kg qd, FIG. 6B",significantly prolonged
same,effect on tumor growth,"[7]; 80 mg/kg qd, FIG. 7A",initially induced regression but tumors started to regrow
same,time to endpoint (tumor volume >700 mm3),"[7]; 80 mg/kg qd, FIG. 7B",significantly prolonged
